Laboratory results published in patent EP1561465A2, “Methods of use of fluoroquinolone compounds against bacteria” (LG Life Sciences, Ltd., priority 1999, dated 2001).
≈ marks a conversion by molar mass, not a printed value. Read-outs that look alike come from different tables or passages of the source.

Legend:
Shigella spp. = assay: MIC by agar dilution (NCCLS M7-A4), 288 enteropathogenic isolates, eight quinolones; format: cell-based; settings: Shigella spp. (n = 21)
Staphylococcus aureus [1] = assay: MIC by NCCLS reference broth microdilution, 450 respiratory tract pathogens; format: cell-based
Streptococcus pyogenes [2] = assay: as above; format: cell-based; settings: Streptococcus pyogenes
Staphylococcus aureus [3] = assay: MIC by agar macrodilution (NCCLS), 373 Gram positive isolates, Athens 1998; format: cell-based; settings: Methicillin-susceptible Staphylococcus aureus (n = 85)
Staphylococcus aureus [4] = assay: MIC by NCCLS broth microdilution, 1100 Japanese clinical isolates 1997-1998; format: cell-based; settings: for MIC50 / MIC90 / MIC: Staphylococcus aureus; for MIC: Staphylococcus aureus quinolone resistant
Aeromonas spp. = assay: MIC by agar dilution (NCCLS M7-A4), 288 enteropathogenic isolates, eight quinolones; format: cell-based; settings: Aeromonas spp. (n = 16)
Streptococcus pyogenes [5] = assay: MIC by NCCLS broth microdilution, 1100 Japanese clinical isolates 1997-1998; format: cell-based
Salmonella spp. = assay: MIC by agar dilution (NCCLS M7-A4), 288 enteropathogenic isolates, gemifloxacin and 15 other antimicrobials; format: cell-based
Campylobacter jejuni = assay: as above; settings: for MIC: Campylobacter jejuni
[6] = β-lactamase positive and erythromycin resistant (n = 10)
[7] = Streptococcus pyogenes (n = 100)
[8] = erythromycin resistant C phenotype [MLSB] (n = 20)
[9] = erythromycin resistant I phenotype [MLSB] (n = 20)
[10] = erythromycin resistant M phenotype (n = 20)
[11] = Staphylococcus aureus oxacillin resistant (n=57)
[12] = Staphylococcus aureus oxacillin susceptible (n=41)

## N[C@@H]1[C@H]2CN(c3nc4c(cc3F)c(=O)c(C(=O)O)cn4-c3ccc(F)cc3F)C[C@@H]12 [Trovafloxacin, trovafloxacin]
Shigella spp.
  % Susceptible: 100%
  MIC50: ≤ 0.015 µg/mL
  MIC90: ≤ 0.015 µg/mL
  MIC Range: ≤0.015 µg/mL
Staphylococcus aureus [1]; Staphylococcus aureus (n = 50)
  MIC: 0.00375 to 0.5 µg/mL (≈ 0.00901 to 1.2 µM)
  MIC50: 0.12 µg/mL (≈ 0.288 µM)
  MIC90: 0.25 µg/mL (≈ 0.6 µM)
Staphylococcus aureus [1]; β-lactamase negative (n = 20)
  MIC: 0.00375 to 0.25 µg/mL (≈ 0.00901 to 0.6 µM)
  MIC50: 0.12 µg/mL (≈ 0.288 µM)
  MIC90: 0.25 µg/mL (≈ 0.6 µM)
Staphylococcus aureus [1]; β-lactamase positive (n = 20)
  MIC: 0.06 to 0.5 µg/mL (≈ 0.144 to 1.2 µM)
  MIC50: 0.12 µg/mL (≈ 0.288 µM)
  MIC90: 0.25 µg/mL (≈ 0.6 µM)
Staphylococcus aureus [1]; [6]
  MIC: 0.00375 to 0.25 µg/mL (≈ 0.00901 to 0.6 µM)
  MIC50: 0.12 µg/mL (≈ 0.288 µM)
  MIC90: 0.25 µg/mL (≈ 0.6 µM)
Streptococcus pyogenes [2]; [7]
  MIC: 0.03 to 1 µg/mL (≈ 0.0721 to 2.4 µM)
  MIC50: 0.12 µg/mL (≈ 0.288 µM)
  MIC90: 0.25 µg/mL (≈ 0.6 µM)
Streptococcus pyogenes [2]; [8]
  MIC: 0.03 to 0.12 µg/mL (≈ 0.0721 to 0.288 µM)
  MIC50: 0.06 µg/mL (≈ 0.144 µM)
  MIC90: 0.12 µg/mL (≈ 0.288 µM)
Streptococcus pyogenes [2]; [9]
  MIC: 0.06 to 0.5 µg/mL (≈ 0.144 to 1.2 µM)
  MIC50: 0.12 µg/mL (≈ 0.288 µM)
  MIC90: 0.5 µg/mL (≈ 1.2 µM)
Streptococcus pyogenes [2]; [10]
  MIC: 0.06 to 0.5 µg/mL (≈ 0.144 to 1.2 µM)
  MIC50: 0.12 µg/mL (≈ 0.288 µM)
  MIC90: 0.12 µg/mL (≈ 0.288 µM)
Streptococcus pyogenes [2]; fully susceptible (n = 20)
  MIC: 0.06 to 1 µg/mL (≈ 0.144 to 2.4 µM)
  MIC50: 0.12 µg/mL (≈ 0.288 µM)
  MIC90: 0.25 µg/mL (≈ 0.6 µM)
Streptococcus pyogenes [2]; multi-drug resistant (n = 20)
  MIC: 0.12 to 0.25 µg/mL (≈ 0.288 to 0.6 µM)
  MIC50: 0.12 µg/mL (≈ 0.288 µM)
  MIC90: 0.25 µg/mL (≈ 0.6 µM)
Staphylococcus aureus [3]
  MIC Range: ≤0.03 to 2 µg/mL
Staphylococcus aureus [3]; read-out: MIC50
  MIC50: 0.06 µg/mL (≈ 0.144 µM)
Staphylococcus aureus [3]; read-out: MIC90
  MIC90: 0.125 µg/mL (≈ 0.3 µM)
Staphylococcus aureus [4]; [11]
  MIC Range: 0.016 to 32 µg/mL
  MIC50: 1 µg/mL (≈ 2.4 µM)
  MIC90: 8 µg/mL (≈ 19.2 µM)
Staphylococcus aureus [4]; [12]
  MIC Range: ≤0.008 to 0.5 µg/mL
  MIC50: 0.032 µg/mL (≈ 0.0769 µM)
  MIC90: 0.063 µg/mL (≈ 0.151 µM)
Staphylococcus aureus [4]; strain TMS1* (spontaneous mutant resistant to ciprofloxacin)
  MIC: 0.125 µg/mL (≈ 0.3 µM)
Staphylococcus aureus [4]; strain TMS3, read-out: MIC
  MIC: 128 µg/mL (≈ 307 µM)
Staphylococcus aureus [4]; strain TMS4, read-out: MIC
  MIC: 0.5 µg/mL (≈ 1.2 µM)
Staphylococcus aureus [4]; strain TMS5, read-out: MIC
  MIC: 1 µg/mL (≈ 2.4 µM)
Staphylococcus aureus [4]; strain TMS6, read-out: MIC
  MIC: 0.5 µg/mL (≈ 1.2 µM)
Aeromonas spp.
  % Susceptible: 100%
  MIC50: ≤ 0.015 µg/mL
  MIC90: 0.03 µg/mL (≈ 0.0721 µM)
  MIC Range: ≤0.015 to 0.25 µg/mL
Streptococcus pyogenes [5]; Streptococcus pyogenes
  MIC50: 0.125 µg/mL (≈ 0.3 µM)
Streptococcus pyogenes [5]; Streptococcus pyogenes (n=51)
  MIC90: 0.5 µg/mL (≈ 1.2 µM)
  MIC Range: 0.063 to 0.5 µg/mL
Salmonella spp.; S. hadar(2), isolates with MICs for ciprofloxacin ≥[…], read-out: MIC
  MIC: 0.5 mg/L (≈ 1.2 µM)
Salmonella spp.; S. newport(1), isolate with MIC for ciprofloxacin ≥[…], read-out: MIC
  MIC: 0.5 mg/L (≈ 1.2 µM)
Salmonella spp.; S. virchow(2), isolates with MICs for ciprofloxacin ≥[…], read-out: MIC
  MIC: 0.25 mg/L (≈ 0.6 µM)
Salmonella spp.; Salmonella spp. N= 106
  MIC (mg/L) Range: ≤0.015 to 1 mg/L
Salmonella spp.; Salmonella, S. tshiongwe(1), isolate with MIC for ciprofloxacin ≥[…], read-out: MIC
  MIC: 1 mg/L (≈ 2.4 µM)
Salmonella spp.; Salmonella, read-out: MIC (mg/L) 50%, Salmonella spp. N= 106
  MIC: 0.06 mg/L (≈ 0.144 µM)
Salmonella spp.; Salmonella, read-out: MIC (mg/L) 90%, Salmonella spp. N= 106
  MIC: 0.25 mg/L (≈ 0.6 µM)
Campylobacter jejuni; Campylobacter jejuni N= 91
  MIC (mg/L) Range: ≤0.015 to 32 mg/L
Campylobacter jejuni; read-out: MIC (mg/L) 50%
  MIC: 8 mg/L (≈ 19.2 µM)
Campylobacter jejuni; read-out: MIC (mg/L) 90%
  MIC: 8 mg/L (≈ 19.2 µM)
